Experimental data published in US20250082674A1, “METHODS OF TREATING COPPER METABOLISM-ASSOCIATED DISEASES OR DISORDERS” (priority 2021, published 2025).
Read-outs that look alike come from different tables or passages of the source.

Tests used:
[1] = tested on: ^64Cu hepatic uptake, biliary copper excretion; details: 4 WD patients, FIG. 30
Protocol: (§1) 15 minutes after intravenous administration of ^64Cu, a dynamic PET-MR scan was performed, followed by additional scans at 1, 2, 6, 20, 48, 54, and 68 hours. Venous blood samples were collected for quantitation of radioactivity at multiple time points.
The post-treatment ^64Cu PET-MR study was initiated on the 7th day, with serial PET-MR imaging conducted 1, 2, 6, 20, 48, 54, and 68 hours after intravenous administration of ^64Cu.
The study also assessed the kinetics of ^64Cu in the blood and its distribution among organs of interest. The SUV allows for semiquantitative assessment of copper in a desired volume of interest by measuring the ratio of observed copper activity to the total dose administered.

copper = tested on: copper
Text: (§2) These participants had all intake (food and drink) and output (urine and feces) collected from Day-4 through Day-1 (baseline), from Day 1 through Day 8, and Day 25 through Day 39.

[2] = in vivo
Text: as §2

^64Cu in blood = tested on: ^64Cu in blood
Protocol: as §1

Bis-choline tetrathiomolybdate [BC-TTM]
mean SUV for the other organs after treatment [1]: did not change
Increase from Baseline in Directly Measured NCC, Mean (SD) (copper; Study 204, Day 1, 2 Hours Post-Dose): 0.5004 (0.7105) μmol/L
Increase from Baseline in Directly Measured NCC, Mean (SD) (copper; Study 204, Day 1, 4 Hours Post-Dose): 1.96 (1.804) μmol/L
Increase from Baseline in Directly Measured NCC, Mean (SD) (copper; Study 204, Day 1, 5 Hours Post-Dose): 2.719 (2.534) μmol/L
Increase from Baseline in Directly Measured NCC, Mean (SD) (copper; Study 204, Day 1, 6 Hours Post-Dose): 2.324 (2.086) μmol/L
Increase from Baseline in Directly Measured NCC, Mean (SD) (copper; Study 204, Day 1, 8 Hours Post-Dose): 2.402 (2.183) μmol/L
Increase from Baseline in Directly Measured NCC, Mean (SD) (copper; Study 204, Day 1, 12 Hours Post-Dose): 1.725 (1.575) μmol/L
Increase from Baseline in Directly Measured NCC, Mean (SD) (copper; Study 204, Day 1, 24 Hours Post-Dose): 1.063 (1.074) μmol/L
Increase from Baseline in Directly Measured NCC, Mean (SD) (copper; Study 204, Day 4, Pre-Dose): 2.677 (1.297) μmol/L
Increase from Baseline in Directly Measured NCC, Mean (SD) (copper; Study 204, Day 5, Pre-Dose): 3.144 (1.37) μmol/L
Increase from Baseline in Directly Measured NCC, Mean (SD) (copper; Study 204, Day 6, Pre-Dose): 3.574 (1.57) μmol/L
Increase from Baseline in Directly Measured NCC, Mean (SD) (copper; Study 204, Day 7, Pre-Dose): 3.7 (1.709) μmol/L
Increase from Baseline in Directly Measured NCC, Mean (SD) (copper; Study 204, Day 25, 2 Hours Post-Dose): 2.551 (1.063) μmol/L
Increase from Baseline in Directly Measured NCC, Mean (SD) (copper; Study 204, Day 25, 4 Hours Post-Dose): 3.443 (2.008) μmol/L
Increase from Baseline in Directly Measured NCC, Mean (SD) (copper; Study 204, Day 25, 5 Hours Post-Dose): 3.38 (2.478) μmol/L
Increase from Baseline in Directly Measured NCC, Mean (SD) (copper; Study 204, Day 25, 6 Hours Post-Dose): 4.44 (2.949) μmol/L
Increase from Baseline in Directly Measured NCC, Mean (SD) (copper; Study 204, Day 25, 8 Hours Post-Dose): 5.101 (2.491) μmol/L
Increase from Baseline in Directly Measured NCC, Mean (SD) (copper; Study 204, Day 25, 12 Hours Post-Dose): 4.917 (2.463) μmol/L
Increase from Baseline in Directly Measured NCC, Mean (SD) (copper; Study 204, Day 25, 24 Hours Post-Dose): 3.438 (1.754) μmol/L
Increase from Baseline in Directly Measured NCC, Mean (SD) (copper; Study 204, Day 25, −0.5 Hours): 2.121 (0.611) μmol/L
Increase from Baseline in Directly Measured NCC, Mean (SD) (copper; Study 204, Day 27, Pre-Dose): 2.767 (1.755) μmol/L
Increase from Baseline in Directly Measured NCC, Mean (SD) (copper; Study 204, Day 28, Pre-Dose): 2.327 (1.376) μmol/L
Increase from Baseline in Directly Measured NCC, Mean (SD) (copper; Study 204, Day 29, 2 Hours Post-Dose): 2.814 (0.884) μmol/L
Increase from Baseline in Directly Measured NCC, Mean (SD) (copper; Study 204, Day 29, 4 Hours Post-Dose): 3.38 (1.494) μmol/L
Increase from Baseline in Directly Measured NCC, Mean (SD) (copper; Study 204, Day 29, 5 Hours Post-Dose): 4.078 (1.939) μmol/L
Increase from Baseline in Directly Measured NCC, Mean (SD) (copper; Study 204, Day 29, 6 Hours Post-Dose): 4.686 (2.237) μmol/L
Increase from Baseline in Directly Measured NCC, Mean (SD) (copper; Study 204, Day 29, 8 Hours Post-Dose): 5.305 (2.311) μmol/L
Increase from Baseline in Directly Measured NCC, Mean (SD) (copper; Study 204, Day 29, 12 Hours Post-Dose): 4.749 (2.205) μmol/L
Increase from Baseline in Directly Measured NCC, Mean (SD) (copper; Study 204, Day 29, 24 Hours Post-Dose): 3.543 (1.397) μmol/L
Increase from Baseline in Directly Measured NCC, Mean (SD) (copper; Study 204, Day 29, −0.5 Hours): 2.662 (1.209) μmol/L
Increase from Baseline in Directly Measured NCC, Mean (SD) (copper; Study 204, Day 31, Pre-Dose): 4.121 (2.779) μmol/L
Increase from Baseline in Directly Measured NCC, Mean (SD) (copper; Study 204, Day 32, Pre-Dose (N=1)): 8.131 (NA) μmol/L
Increase from Baseline in Directly Measured NCC, Mean (SD) (copper; Study 204, Day 33, Pre-Dose): 4.231 (4.114) μmol/L
Increase from Baseline in Directly Measured NCC, Mean (SD) (copper; Study 204, Day 34, Pre-Dose): 4.103 (3.872) μmol/L
Increase from Baseline in Directly Measured NCC, Mean (SD) (copper; Study 204, Day 35, Pre-Dose): 4.49 (4.526) μmol/L
Increase from Baseline in Directly Measured NCC, Mean (SD) (copper; Study 204, Day 36, Pre-Dose): 3.465 (3.016) μmol/L
Increase from Baseline in Directly Measured NCC, Mean (SD) (copper; Study 204, Day 37, Pre-Dose): 4.168 (4.069) μmol/L
Increase from Baseline in Directly Measured NCC, Mean (SD) (copper; Study 204, Day 38, Pre-Dose (N=1)): 7.643 (NA) μmol/L
Increase from Baseline in Directly Measured NCC, Mean (SD) (copper; Study 204, Day 39, 2 Hours Post-Dose): 3.816 (3.943) μmol/L
Increase from Baseline in Directly Measured NCC, Mean (SD) (copper; Study 204, Day 39, 4 Hours Post-Dose): 5.578 (5.922) μmol/L
Increase from Baseline in Directly Measured NCC, Mean (SD) (copper; Study 204, Day 39, 5 Hours Post-Dose): 6.26 (6.245) μmol/L
Increase from Baseline in Directly Measured NCC, Mean (SD) (copper; Study 204, Day 39, 6 Hours Post-Dose): 6.659 (5.704) μmol/L
Increase from Baseline in Directly Measured NCC, Mean (SD) (copper; Study 204, Day 39, 8 Hours Post-Dose): 7.32 (6.096) μmol/L
Increase from Baseline in Directly Measured NCC, Mean (SD) (copper; Study 204, Day 39, 12 Hours Post-Dose): 6.554 (4.695) μmol/L
Increase from Baseline in Directly Measured NCC, Mean (SD) (copper; Study 204, Day 39, 24 Hours Post-Dose): 4.545 (3.677) μmol/L
Increase from Baseline in Directly Measured NCC, Mean (SD) (copper; Study 204, Day 39, −0.5 Hours): 3.412 (3.688) μmol/L
participants in whom dose escalation was not carried out due to elevation of liver enzymes [2]: 2 participants
Intravenously injected ^64Cu in the blood (^64Cu in blood; Post (after BC-TTM treatment), 5 sec): 0.05
Intravenously injected ^64Cu in the blood (^64Cu in blood; Post (after BC-TTM treatment), 15 sec): 1.02
Intravenously injected ^64Cu in the blood (^64Cu in blood; Post (after BC-TTM treatment), 60 sec): 4.16
Intravenously injected ^64Cu in the blood (^64Cu in blood; Post (after BC-TTM treatment), 120 sec): 3.47 (4.65)
Intravenously injected ^64Cu in the blood (^64Cu in blood; Post (after BC-TTM treatment), 200 sec): 5.01
Intravenously injected ^64Cu in the blood (^64Cu in blood; Post (after BC-TTM treatment), 300 sec): 6.99
Intravenously injected ^64Cu in the blood (^64Cu in blood; Post (after BC-TTM treatment), 600 sec): 7.03
Intravenously injected ^64Cu in the blood (^64Cu in blood; Post (after BC-TTM treatment), 1 hour): 5.43
Intravenously injected ^64Cu in the blood (^64Cu in blood; Post (after BC-TTM treatment), 2 hours): 5.09
Intravenously injected ^64Cu in the blood (^64Cu in blood; Post (after BC-TTM treatment), 6 hours): 2.54
Intravenously injected ^64Cu in the blood (^64Cu in blood; Post (after BC-TTM treatment), 20 hours): 0.77 (0.41)
Intravenously injected ^64Cu in the blood (^64Cu in blood; Post (after BC-TTM treatment), 48 hours): 0.51
Intravenously injected ^64Cu in the blood (^64Cu in blood; Post (after BC-TTM treatment), 54 hours): 0.42
Intravenously injected ^64Cu in the blood (^64Cu in blood; Post (after BC-TTM treatment), 68 hours): 0.42
Intravenously injected ^64Cu in the blood (^64Cu in blood; Pre (before BC-TTM treatment), 5 sec): 0.00
Intravenously injected ^64Cu in the blood (^64Cu in blood; Pre (before BC-TTM treatment), 15 sec): 0.00
Intravenously injected ^64Cu in the blood (^64Cu in blood; Pre (before BC-TTM treatment), 60 sec): 5.30
Intravenously injected ^64Cu in the blood (^64Cu in blood; Pre (before BC-TTM treatment), 120 sec): 5.15 (4.28)
Intravenously injected ^64Cu in the blood (^64Cu in blood; Pre (before BC-TTM treatment), 200 sec): 5.13
Intravenously injected ^64Cu in the blood (^64Cu in blood; Pre (before BC-TTM treatment), 300 sec): 5.88
Intravenously injected ^64Cu in the blood (^64Cu in blood; Pre (before BC-TTM treatment), 600 sec): 4.35
Intravenously injected ^64Cu in the blood (^64Cu in blood; Pre (before BC-TTM treatment), 1 hour): 0.78
Intravenously injected ^64Cu in the blood (^64Cu in blood; Pre (before BC-TTM treatment), 2 hours): 0.64
Intravenously injected ^64Cu in the blood (^64Cu in blood; Pre (before BC-TTM treatment), 6 hours): 0.42
Intravenously injected ^64Cu in the blood (^64Cu in blood; Pre (before BC-TTM treatment), 20 hours): 0.32 (0.06)
Intravenously injected ^64Cu in the blood (^64Cu in blood; Pre (before BC-TTM treatment), 48 hours): 0.33
Intravenously injected ^64Cu in the blood (^64Cu in blood; Pre (before BC-TTM treatment), 54 hours): 0.28
Intravenously injected ^64Cu in the blood (^64Cu in blood; Pre (before BC-TTM treatment), 68 hours): 0.25
64Cu peak in blood and clearance from blood after treatment (^64Cu in blood; WD patients, FIG. 31): higher peak in the blood and its clearance from blood was delayed
64Cu in the blood after versus before treatment (^64Cu in blood; WD patients, from 1 hour to 48 hours after intravenous 64Cu): significantly more
